Test results as given in the NIST ThermoML archive (doi:10.1021/je2013878).
± gives the expanded uncertainty stated by the source.

Test: activity coefficient (dimensionless); of the first substance listed, at infinite dilution; xn = mol fraction of the nth substance listed
Details: 313.15 K; 101 kPa; Liquid; Chromatography; x1 = 0

SMILES	activity coefficient
C=CC(O)CCCCC (configuration not stated) [1-octen-3-ol] + O	2160 ± 230
C=CC(O)CC (configuration not stated) [1-penten-3-ol] + O	49 ± 5
CCC(=O)C(C)=O [2,3-pentanedione] + O	160 ± 17
CC(C)CC=O [3-methylbutanal] + O	179 ± 19
O=Cc1ccccc1 [benzaldehyde] + O	570 ± 60
CCOC(C)=O [ethyl acetate] + O	71 ± 7
CCCCCC=O [hexanal] + O	601 ± 63
